# Experimental data taken from patent US20130131174A1, “INJECTABLE PHARMACEUTICAL FORMULATION OF MELPHALAN” (ERIOCHEM, priority 2010, published 2013).
# Where “and” joins values, the source holds several entries; their conditions need not be identical. Equal values may be shown once.
# Assays:
# [1] = Stability at 25° C. of melphalan solution at 10 mg/ml in glacial acetic acid, purity by HPLC; format: physicochemical
# Method: To study stability at 25° C. of a melphalan solution at 10 mg/ml in glacial acetic acid in the absence of hydrochloric acid, 830 mg base melphalan Lot 20-01-2010 were used and the results of the following table were obtained. This solution is not comprised in the present invention, it is only introduced with the aim of comparing this option without hydrochloric acid presenting higher concentration of impurities than the composition of lyophilized melphalan on the invention.
# [2] = Purity by HPLC of melphalan lyophilizates vs. their API (degradation on lyophilization)
# Method: Purity determinations of melphalan in its different compositions were analyzed by HPLC applying the method Pharmaeuropa, Vol 21, No. 3, July 2009, pages 425-28, for the following examples:
# (§1) Simultaneously, the melphalan solution was filtered and measured in doses to 10 mg/ml in glacial acetic acid with 3 moles of hydrochloric acid from hydrochloric acid at 37% w/we, which used base melphalan Lot 20-01-2010, in 5 ml vials of the tube flask type, 20 mm mouth, containing 2 ml solution, and it was lyophilized in a Virtis Advantage Lyophilizer, freezing at −50° C. for 5 hours, starting vacuum at the same temperature, then bringing the shelf to −20° C., then to 0° C. and finally drying at 5° C., with a final vacuum of 25 microbars.
# as §1, with “acid,” for “acid with 3 moles of hydrochloric acid from hydrochloric acid at 37% w/we,”, “25°” for “5°”
# [3] = Solubility of melphalan in pharmaceutical organic solvents; format: physicochemical; conditions: for Solubility in DMSO: hydrochlorate prepared by addition of three moles of hydrochloric acid at 37%
# Method: To investigate the possibility of elaborating malphalan lyophilizates from pharmaceutical organic solvents, it was determined that base melphalan as well as its hydrochlorate are not soluble in terbutylic alcohol. Instead, even though base malphalan is not soluble in DMSO, its hydrochlorate is soluble up to close to 10% p/v, prepared by the addition of three moles of hydrochloric acid as a concentrated acid at 37%.
# Base melphalan is soluble in glacial acetic acid, preferably free of acetic anhydride, in up to close to 10% p/v; likewise as melphalan hydrochlorate, mixtures of acetic acid and aqueous solution of hydrochloric acid at 37% p/p to dissolve base melphalan may also be used, or else hydrogen chloride solution in glacial acetic acid.
# [4] = pH of lyophilized melphalan after reconstitution, dilution in normal saline solution and neutralization with trisodium citrate; format: physicochemical; conditions: 5 mg/ml of melphalan hydrochlorate with 2.5 molecules of hydrogen chloride per melphalan mol
# Method: (§2) A vial containing the solid composition of lyophilized melphalan was reconstituted with 3.2 ml of normal saline solution, producing a melphalan solution at 5.40 mg/ml of pH 1.80. An aliquot of 0.8 ml was taken and added with another of 4.2 ml of normal saline solution, producing 0.86 mg/ml of pH 2.33. It was neutralized with 0.20 ml of a solution of 100 mg/ml of trisodium citrate dihydrate, producing a final pH 5.44.
# as §2, with “6.84” for “5.40”, “2.20.” for “1.80.”, “1.09” for “0.86”, “2.20.” for “2.33.”, “of 5.59.” for “5.44.”
# [5] = cited from earlier work
# [6] = API before dissolution, listed as API
# [7] = API or lyophilizate, listed as API
# [8] = API or lyophilizate, listed as API-Mel 143-09
structure (smiles),measurement,setting,value
"N[C@@H](Cc1ccc(N(CCCl)CCCl)cc1)C(=O)O [Melphalan, p-(bis-2-chloroethyl)-amino-L-phenylalanine]",Impurity C,[1]; API before dissolution,0.02 % of area
same,Impurity D,[1]; API before dissolution,0.09 % of area
same,Impurity F,[1]; API before dissolution,0.05 % of area
same,Impurity G,[1]; API before dissolution,2.05 % of area
same,Impurity I,[1]; API before dissolution,0.03 % of area
same,Impurity J,[1]; API before dissolution,0.11 % of area
same,Melphalan Purity,[1]; API before dissolution,97.45 % of area
same,Total of Impurities,[1]; API before dissolution,2.55 % of area
same,Max. Imp. Disposab,[1]; [6],0.02 (TRR 0.81) % of area and 0.04 % of area
same,Other Imp. Disposab,[1]; [6],0.04 (TRR 1.58) % of area and 0.02 % of area
same,Stability in solution of 10 mg/ml in acetic acid by HPLC,[1]; hours in solution at ambient temperature / 25° C.,perfectly stable
same,Impurity C,[2]; API or lyophilizate,<0.05 % w/w
same,Impurity F,[2]; API or lyophilizate,<0.05 % w/w
same,Impurity I,[2]; API or lyophilizate,<0.05 % w/w
same,Impurity D,[2]; [7],0.05% w/w and <0.05 % w/w
same,Impurity G,[2]; [7],1.04% w/w and 0.97% w/w
same,Impurity J,[2]; [7],0.05% w/w and <0.05 % w/w
same,Máx. Imp. Dispos,[2]; [7],0.05% w/w and 0.07% w/w
same,Total of Impurities,[2]; [7],1.19% w/w and 1.04% w/w
same,Impurity D,[2]; [8],0.1 % w/w
same,Impurity G,[2]; [8],0.9 % w/w
same,Máx. Imp. Dispos,[2]; [8],0.1 % w/w
same,Total of Impurities,[2]; [8],1.2 % w/w
same,Degradation of the API on non-aqueous lyophilization,[2]; from acetic acid with three moles of hydrochloric acid per mol,lower than 0.2 % in area
same,Solubility in terbutylic alcohol,[3],not soluble
same,Solubility in DMSO,[3]; listed as base malphalan,not soluble
same,Solubility in glacial acetic acid,[3]; preferably free of acetic anhydride,~10 % p/v
N[C@@H](Cc1ccc(N(CCCl)CCCl)cc1)C(=O)O [melphalan hydrochlorate],pH of an aqueous solution,[4],approximately 1.9
same,Solubility in DMSO,[3]; listed as its hydrochlorate,~10 % p/v
CC(O)CO (stereo not shown) [propylene glycol],Half plasma life,[5]; individuals with normal renal function,5 h
same,Excreted by kidneys,[5]; rest metabolized by the liver,12-45%
